# How the values were obtained:
# Type in all cases: physicochemical
# [1] = Hygroscopicity study: Dynamic Vapor Sorption analysis (DVS)
# Experimental: (§1) The hygroscopicity of (3R)-1-(2-methylalanyl-D-tryptophyl)-3-(phenylmethyl)-3-piperidinecarboxylic acid 1,2,2-trimethylhydrazide form C produced by the method disclosed in Example 4 (monohydrate) was evaluated using Dynamic Vapor Sorption analysis (DVS) and Thermogravimetric analysis (TGA). Dynamic Vapor Sorption Analysis (DVS)
# The samples were analyzed using a Hiden IGAsorp vapor sorption analyzer. Each sample was placed in a sample pan and exposed to drying at 25° C. in a dry nitrogen stream for two hours. This assured that the samples being analyzed were at a constant weight prior to the start of the analysis. The samples were then analyzed at 25.0° C. The adsorption isotherm was conducted between: 10-90% RH with a step size of 10%. The desorption isotherm was conducted between 85-0% RH with a step size 10%. After the isotherms were complete, each of the samples were heated to 125° C. until the weight loss curve reached an asymptote or for 4 hours.
# [2] = Hygroscopicity study: Thermogravimetric analysis (TGA); conditions: before DVS
# Experimental: as §1
# The samples were analyzed using a Mettler 851e thermogravimetric analyzer. Samples were weighed into a crucible. The samples were heated from 30° C. to 300.0° C. ramped at 10.00° C./min with an air purge.
# [3] = 12 month stability study: HPLC weight % (TM-808)
# Experimental: (§2) Crystalline (3R)-1-(2-methylalanyl-D-tryptophyl)-3-(phenylmethyl)-3-piperidinecarboxylic acid 1,2,2-trimnethylhydrazide was placed in double plastic bags, closed under a nitrogen blanket, and placed inside a small fiberboard container, the physical appearance, water content, purity and crystallinity were tested every three months for a period of 12 months under a variety of conditions.
# (§3) The purity and water content of (3R)-1-(2-methylalanyl-D-tryptophyl)-3-(phenylmethyl)-3-piperidinecarboxylic acid 1,2,2-trimethylhydrazide was analyzed using HPLC and KF respectively before, during, and after the 12 month stability study.
# [4] = 12 month stability study: crystallinity using optical microscopy (USP <695>)
# Experimental: as §2
# [5] = 12 month stability study: HPLC area % (TM-808)
# Experimental: as §2, §3
# [6] = 12 month stability study: physical description (TM-106)
# Experimental: as §2
# [7] = 12 month stability study: DSC (USP <891>)
# Experimental: as §2
# [8] = 12 month stability study: water content by Karl Fischer; conditions: 1 month
# [9] = as above
# Experimental: as §2, §3
compound,measurement,setting,value
"CN(C)N(C)C(=O)[C@@]1(Cc2ccccc2)CCCN(C(=O)[C@@H](Cc2c[nH]c3ccccc23)NC(=O)C(C)(C)N)C1 [Form C monohydrate, (3R)-1-(2-methylalanyl-D-tryptophyl)-3-(phenylmethyl)-3-piperidinecarboxylic acid 1,2,2-trimethylhydrazide]",relative humidity above which the dihydrate was formed,[1]; DVS,> 35%
same,water contained after steady adsorption,"[1]; adsorption isotherm, 25.0° C., at 35% RH",6 % by weight
same,additional adsorption,"[1]; adsorption isotherm, up to 90% RH",No other significant additional adsorption
same,relative humidity down to which the dihydrate form was observed,[1]; desorption isotherm,30 % RH
same,bound water initially contained,[2],2.5 % by weight
"CN(C)N(C)C(=O)[C@@]1(Cc2ccccc2)CCCN(C(=O)[C@@H](Cc2c[nH]c3ccccc23)NC(=O)C(C)(C)N)C1 [crystalline anamorelin, (3R)-1-(2-methylalanyl-D-tryptophyl)-3-(phenylmethyl)-3-piperidinecarboxylic acid 1,2,2-trimethylhydrazide]",HPLC Weight %,"[3]; 5° C., 1 month",92.0%
same,HPLC Weight %,"[3]; 5° C., 3 months",93.2%
same,HPLC Weight %,"[3]; 5° C., 6 months",93.9%
same,HPLC Weight %,"[3]; 5° C., 9 months",94.5%
same,HPLC Weight %,"[3]; 5° C., 12 months",94.3%
same,HPLC Weight %,"[3]; 25° C. 60% RH, 1 month",92.1%
same,HPLC Weight %,"[3]; 25° C. 60% RH, 3 months",93.2%
same,HPLC Weight %,"[3]; 25° C. 60% RH, 6 months",94.2%
same,HPLC Weight %,"[3]; 25° C. 60% RH, 9 months",94.6%
same,HPLC Weight %,"[3]; 25° C. 60% RH, 12 months",94.2%
same,HPLC Weight %,"[3]; 40° C. 75% RH, 1 month",91.8%
same,HPLC Weight %,"[3]; 40° C. 75% RH, 3 months",93.0%
same,HPLC Weight %,"[3]; 40° C. 75% RH, 6 months",94.1%
same,HPLC Weight %,[3]; Initial,99.8%
same,Crystallinity using Optical Microscopy,"[4]; 5° C., 1 month",Crystal-
same,Crystallinity using Optical Microscopy,"[4]; 5° C., 3 months",Crystal-
same,Crystallinity using Optical Microscopy,"[4]; 5° C., 6 months",Crystal-
same,Crystallinity using Optical Microscopy,"[4]; 5° C., 9 months",Crystal-
same,Crystallinity using Optical Microscopy,"[4]; 5° C., 12 months",Crystal-
same,Crystallinity using Optical Microscopy,"[4]; 25° C. 60% RH, 1 month",Crystal-
same,Crystallinity using Optical Microscopy,"[4]; 25° C. 60% RH, 3 months",Crystal-
same,Crystallinity using Optical Microscopy,"[4]; 25° C. 60% RH, 6 months",Crystal-
same,Crystallinity using Optical Microscopy,"[4]; 25° C. 60% RH, 9 months",Crystal-
same,Crystallinity using Optical Microscopy,"[4]; 25° C. 60% RH, 12 months",Crystal-
same,Crystallinity using Optical Microscopy,"[4]; 40° C. 75% RH, 1 month",Crystal-
same,Crystallinity using Optical Microscopy,"[4]; 40° C. 75% RH, 3 months",Crystal-
same,Crystallinity using Optical Microscopy,"[4]; 40° C. 75% RH, 6 months",Crystal-
same,Crystallinity using Optical Microscopy,[4]; Initial,Crystal-
same,HPLC Area %,"[5]; 5° C., 1 month",99.7%
same,HPLC Area %,"[5]; 5° C., 3 months",99.7%
same,HPLC Area %,"[5]; 5° C., 6 months",99.7%
same,HPLC Area %,"[5]; 5° C., 9 months",99.8%
same,HPLC Area %,"[5]; 5° C., 12 months",99.7%
same,HPLC Area %,"[5]; 25° C. 60% RH, 1 month",99.7%
same,HPLC Area %,"[5]; 25° C. 60% RH, 3 months",99.7%
same,HPLC Area %,"[5]; 25° C. 60% RH, 6 months",99.7%
same,HPLC Area %,"[5]; 25° C. 60% RH, 9 months",99.8%
same,HPLC Area %,"[5]; 25° C. 60% RH, 12 months",99.7%
same,HPLC Area %,"[5]; 40° C. 75% RH, 1 month",99.7%
same,HPLC Area %,"[5]; 40° C. 75% RH, 3 months",99.7%
same,HPLC Area %,"[5]; 40° C. 75% RH, 6 months",99.7%
same,HPLC Area %,[5]; Initial,99.8%
same,purity,[5]; after 12 months,relatively unchanged
same,Physical Description,"[6]; 5° C., 1 month",Off-white
same,Physical Description,"[6]; 5° C., 3 months",Off-white
same,Physical Description,"[6]; 5° C., 6 months",Off-white
same,Physical Description,"[6]; 5° C., 9 months",White
same,Physical Description,"[6]; 5° C., 12 months",Off-white
same,Physical Description,"[6]; 25° C. 60% RH, 1 month",Off-white
same,Physical Description,"[6]; 25° C. 60% RH, 3 months",Off-white
same,Physical Description,"[6]; 25° C. 60% RH, 6 months",Off-white
same,Physical Description,"[6]; 25° C. 60% RH, 9 months",Off-white
same,Physical Description,"[6]; 25° C. 60% RH, 12 months",Off-white
same,Physical Description,"[6]; 40° C. 60% RH, 1 month",Off-white
same,Physical Description,"[6]; 40° C. 60% RH, 3 months",Off-white
same,Physical Description,"[6]; 40° C. 60% RH, 6 months",Off-white
same,Physical Description,[6]; Initial,Off-white
same,DSC Onset,"[7]; 5° C., 3 months",112.1 °C
same,DSC Peak,"[7]; 5° C., 3 months",117.1 °C
same,DSC Onset,"[7]; 5° C., 6 months",112.3 °C
same,DSC Peak,"[7]; 5° C., 6 months",116.9 °C
same,DSC Onset,"[7]; 25° C. 60% RH, 3 months",112.6 °C
same,DSC Peak,"[7]; 25° C. 60% RH, 3 months",117.7 °C
same,DSC Onset,"[7]; 25° C. 60% RH, 6 months",112.5 °C
same,DSC Peak,"[7]; 25° C. 60% RH, 6 months",117 °C
same,DSC Onset,"[7]; 40° C. 75% RH, 3 months",112.2 °C
same,DSC Peak,"[7]; 40° C. 75% RH, 3 months",117.5 °C
same,DSC Onset,"[7]; 40° C. 75% RH, 6 months",125.5 °C
same,DSC Peak,"[7]; 40° C. 75% RH, 6 months",117.8 °C
same,DSC Onset,[7]; Initial,108.2 °C
same,DSC Peak,[7]; Initial,112.7 °C
same,Water content by Karl Fisher,[8]; 5° C.,5.3%
same,Water content by Karl Fisher,[8]; 25° C. 60% RH,5.8%
same,Water content by Karl Fisher,[8]; 40° C. 75% RH,6.1%
same,Water content by Karl Fisher,"[9]; 5° C., 3 months",6.0%
same,Water content by Karl Fisher,"[9]; 5° C., 6 months",5.8%
same,Water content by Karl Fisher,"[9]; 5° C., 9 months",5.6%
same,Water content by Karl Fisher,"[9]; 5° C., 12 months",6.1%
same,Water content by Karl Fisher,"[9]; 25° C. 60% RH, 3 months",6.0%
same,Water content by Karl Fisher,"[9]; 25° C. 60% RH, 6 months",5.9%
same,Water content by Karl Fisher,"[9]; 25° C. 60% RH, 9 months",5.7%
same,Water content by Karl Fisher,"[9]; 25° C. 60% RH, 12 months",5.8%
same,Water content by Karl Fisher,"[9]; 40° C. 75% RH, 3 months",6.1%
same,Water content by Karl Fisher,"[9]; 40° C. 75% RH, 6 months",5.9%
same,water content (Karl Fischer Analysis),[9]; after 12 months,approximately 6%
